Reference: patent US10526311B2 (ASTEX THERAPEUTICS LIMITED, priority 2015, dated 2020)
Where two headings read alike, the source gives them in different places.

Experiments:
[1] = test system: SJSA-1 (MDM2 amplified, p53 wild-type osteosarcoma); test: Protocol A: SJSA-1 growth inhibition (SRB); settings: Homo sapiens, SJSA-1, 72 h
[2] = test system: SN40R2 (MDM2 amplified, p53 mutated osteosarcoma); test: Protocol A: SN40R2 growth inhibition (SRB); settings: 72 h
[3] = test system: SN40R2; test: Protocol B: SN40R2 CellTiter-Glo cell viability; settings: 72 h
[4] = target: MDM2-p53 interaction (in vitro translated MDM2, biotinylated IP3 peptide) (Homo sapiens, UniProt Q00987); test: MDM2-p53 interaction 96-well plate binding assay (ELISA); settings: @ 0.0010 μM; read-out: MDM2 % @ concentration
MDM2-p53 interaction (in vitro translated MDM2, biotinylated IP3 peptide), sequence (Q00987 whole entry): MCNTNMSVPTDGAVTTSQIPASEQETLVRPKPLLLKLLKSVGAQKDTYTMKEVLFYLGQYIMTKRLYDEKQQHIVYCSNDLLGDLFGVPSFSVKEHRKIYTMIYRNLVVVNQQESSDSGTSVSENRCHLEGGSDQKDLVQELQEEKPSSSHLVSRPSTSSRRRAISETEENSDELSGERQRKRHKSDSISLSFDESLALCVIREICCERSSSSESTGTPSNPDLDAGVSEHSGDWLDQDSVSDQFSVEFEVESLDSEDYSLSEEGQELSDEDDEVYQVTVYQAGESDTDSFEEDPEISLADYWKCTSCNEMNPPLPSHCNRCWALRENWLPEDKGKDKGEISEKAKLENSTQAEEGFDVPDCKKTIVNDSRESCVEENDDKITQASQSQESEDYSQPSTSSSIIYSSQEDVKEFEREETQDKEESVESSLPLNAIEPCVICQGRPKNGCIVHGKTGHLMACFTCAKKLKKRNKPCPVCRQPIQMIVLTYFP

[5] = test system: SJSA-1; test: Protocol B: SJSA-1 CellTiter-Glo cell viability; settings: Homo sapiens, SJSA-1, 72 h, read-out: SJSA1 IC50 (Protocol B), SJSA-1 cells, CellTiter-Glo, 72 hrs

IC50 ([1]; read-out: SJSA-1 IC50 (μM) (Protocol A), SJSA-1, Protocol A (SRB), 72 hrs) [µM]	IC50 ([2]; read-out: SN40R2 IC50 (μM) (Protocol A)) [µM]	inhibition at 0.001 µM [4] [%]	IC50 ([1]; read-out: SJSA-1 IC50 (Protocol A), SJSA-1 cells, SRB, 72 hrs) [µM]	IC50 ([2]; read-out: SN40R2 IC50 (Protocol A)) [µM]	Structure (SMILES)	IC50 ([3]; read-out: SN40R2 IC50 (μM) (Protocol B)) [µM]	IC50 [5] [µM]	IC50 ([3]; read-out: SN40R2 IC50 (Protocol B)) [µM]	IC50 ([3]; read-out: SN40R2 IC50 (Protocol B), SN40R2 cells, CellTiter-Glo, 72 hrs) [µM]
0.19	13	–	–	–	CCC(O)(c1cc(F)c2c(c1)C(=O)N(Cc1ncc(Cl)cn1)[C@@]2(O[C@H]1CCOC1)c1ccc(Cl)cc1)C1(F)CCNCC1 (single isomer, unassigned) [Example 541]	10	–	–	–
–	–	75	0.07	28	CC(=O)N1CCC(C(C)(O)c2cc(F)c3c(c2)C(=O)N(Cc2ccc(Cl)cn2)[C@@]3(OCC2(C#N)CC2)c2ccc(Cl)cc2)CC1 (single isomer, unassigned) [Example 301]	–	0.036	12	–
–	–	–	–	–	CO[C@]1(c2ccc(Cl)cc2)c2c(F)cc(C(C)(O)c3ncc[nH]3)cc2C(=O)N1Cc1ccc(Cl)cn1 (stereo partly drawn) [Example 163, (3R)-3-(4-chlorophenyl)-2-[(5-chloropyridin-2-yl)methyl]-4-fluoro-6-[1-hydroxy-1-(1H-imidazol-2-yl)ethyl]-3-methoxy-2,3-dihydro-1H-isoindol-1-one]	–	3.1	–	13
